# Laboratory results from the supplement of paper PMC10307832.
# Tests used:
# Assay in all cases: relative viability (nuclei count vs DMSO), 5 days (fraction); higher = more cells survive
# [1] = compound: CC1=C(C=C(C=C1)NC(=O)C2=CC(=CC=C2)C(C)(C)C#N)NC3=CC4=C(C=C3)N=CN(C4=O)C [AZ628] + C[C@]1(O)C[C@@H](c2nc(-c3ccc4ccc(-c5ccccc5)nc4c3)c3c(N)nccn32)C1 [Linsitinib] (partner 1 µM)
# Procedure, shortened: (§1)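 After 5 days of treatment, lung cancer cells in 1536-well plates were fixed and stained in a single step (final 0.05% Triton X-100, 1% formaldehyde, 1 ug/ml Hoechst) and their nuclei counted on 4× images. Treatment had been applied by pin tool the day after seeding as one drug alone or as a fixed anchor-drug dose with five library-drug doses (not always all listed) in √10 steps. Relative viability is the nuclei count of treated wells divided by that of vehicle wells, and values are medians of duplicate plates.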
# [2] = compound: C1CC2=C(C1)C=C(C=C2)OC3=NC(=C4C(=N3)N(C=N4)CC5=CC=C(C=C5)C6=CC=CC=C6)N[C@@H](CC7=CC=CC=C7)CO [QS11] + NC(=O)Nc1cc(-c2cccc(F)c2)sc1C(=O)N[C@H]1CCCNC1 [AZD7762] (partner 0.2 µM)
# Procedure, shortened: as §1
# [3] = compound: CC1=C(C=C(C=C1)NC(=O)C2=CC(=CC=C2)C(C)(C)C#N)NC3=CC4=C(C=C3)N=CN(C4=O)C [AZ628] + CC(=O)c1c(C)c2cnc(Nc3ccc(N4CCNCC4)cn3)nc2n(C2CCCC2)c1=O [Palbociclib] (partner 0.5 µM)
# Procedure, shortened: as §1
# [4] = compound: CC1=C(C=C(C=C1)NC(=O)C2=CC(=CC=C2)C(C)(C)C#N)NC3=CC4=C(C=C3)N=CN(C4=O)C [AZ628] + Cc1cc(Nc2cc(N3CCN(C)CC3)nc(Sc3ccc(NC(=O)C4CC4)cc3)n2)n[nH]1 [Tozasertib] (partner 0.1 µM)
# Procedure, shortened: as §1
Cell Line,relative viability ([1]; first compound 0.08 µM),relative viability ([1]; first compound 0.253 µM),relative viability ([1]; first compound 0.8 µM),relative viability ([1]; first compound 2.53 µM),relative viability ([1]; first compound 8 µM),relative viability ([2]; first compound 0.08 µM),relative viability ([2]; first compound 0.253 µM),relative viability ([2]; first compound 0.8 µM),relative viability ([2]; first compound 2.53 µM),relative viability ([2]; first compound 8 µM),relative viability ([3]; first compound 0.08 µM),relative viability ([3]; first compound 0.253 µM),relative viability ([3]; first compound 0.8 µM),relative viability ([3]; first compound 2.53 µM),relative viability ([3]; first compound 8 µM),relative viability ([4]; first compound 0.08 µM),relative viability ([4]; first compound 0.253 µM),relative viability ([4]; first compound 0.8 µM),relative viability ([4]; first compound 2.53 µM),relative viability ([4]; first compound 8 µM)
ABC-1,0.857,0.81,0.854,0.719,0.799,0.74,0.776,0.732,0.774,0.843,0.795,0.586,0.5,0.884,0.712,0.226,0.166,0.215,0.201,0.175
HARA,0.774,0.847,0.888,0.934,0.309,0.63,–,0.267,0.454,0.329,0.216,0.3,0.223,0.275,0.222,0.144,0.122,0.111,0.0923,0.0666
NCI-H1755,0.993,0.956,0.941,0.937,0.883,0.472,0.492,0.42,0.48,0.413,0.449,0.461,0.446,0.435,0.397,0.595,0.52,0.532,0.525,0.493
NCI-H460,0.74,0.694,0.658,0.523,0.154,0.703,0.644,0.493,0.638,0.889,0.148,0.168,0.147,0.17,0.123,0.449,0.186,0.146,0.382,0.053
NCI-H3122,0.931,0.83,0.686,0.701,0.388,0.998,1.05,–,1.15,0.961,0.159,0.144,0.142,0.144,0.137,0.392,0.339,0.345,0.254,0.189
NCI-H2087,0.818,0.613,0.728,0.65,0.343,1.28,1.4,1.08,1.3,1.3,0.194,0.157,0.165,0.149,0.173,0.251,0.174,0.19,0.204,0.132
HCC-366,0.551,0.454,0.426,0.543,0.114,0.28,0.259,–,0.271,0.192,0.383,0.352,0.328,0.445,0.163,0.0912,0.0518,0.0747,0.0418,0.0451
NCI-H2347,0.719,0.928,0.741,0.792,0.639,0.698,0.694,0.692,0.834,0.807,0.468,0.352,0.266,0.403,0.344,0.491,0.514,0.555,0.514,0.303
